Data reported in paper PMC4661079 (Bioorganic & medicinal chemistry, 2015).
pIC50: −log10 of the molar value.

Columns and labels:
TAK1 = target: T1, TAK1 (Homo sapiens, UniProt O43318); assay: in vitro TAK1 inhibition assay; type: biochemical; conditions: for TAK1 inhibitory activity, result in words: in vitro TAK1 inhibition
T1 sequence (O43318 1-303 limits assumed): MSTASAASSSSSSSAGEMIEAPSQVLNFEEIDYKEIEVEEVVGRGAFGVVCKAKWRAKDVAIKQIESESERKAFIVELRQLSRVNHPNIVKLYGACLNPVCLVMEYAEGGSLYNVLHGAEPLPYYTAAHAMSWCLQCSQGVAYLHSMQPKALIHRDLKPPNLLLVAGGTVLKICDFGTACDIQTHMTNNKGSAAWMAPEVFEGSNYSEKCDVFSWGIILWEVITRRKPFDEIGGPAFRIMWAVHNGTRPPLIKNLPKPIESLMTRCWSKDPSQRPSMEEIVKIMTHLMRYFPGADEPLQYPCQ
T1 sequence (Q15750 437-504 partner limits assumed): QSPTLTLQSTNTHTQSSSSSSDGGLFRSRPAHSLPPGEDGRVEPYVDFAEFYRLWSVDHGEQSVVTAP

85 kinases = conditions: 1 μM concentration; ref 14 (Wu et al.); cited from earlier work

| Structure (SMILES) | TAK1 inhibitory activity, result in words (TAK1) | further results |
| --- | --- | --- |
| CC=C/C=C\C(=O)[C@@H](O)[C@@H](O)C/C=C/c1cc(OC)cc(OC)c1C(=O)OC (stereo in doubt) [Compound 10, Methyl 2-((1E,4S,5S,7Z,9Z)-4,5-dihydroxy-6-oxoundeca-1,7,9-trien-1-yl)-4,6-dimethoxybenzoate] | inability |  |
| COc1cc(O)c2c(c1)/C=C/C[C@H](O)[C@H](O)C(=O)/C=C\C[C@H](C)OC2=O [Compound 1, (5Z)-7-oxozeaenol] |  | number of kinases with at least 50% inhibition out of 85 kinases tested (85 kinases): 12 |
| COc1cc(O)c2c(c1)/C=C/C[C@H](O)[C@H](O)[C@@H](O)/C=C/C[C@H](C)OC2=O [Compound 3, zeaenol] | loss of activity |  |
| COc1cc(O)c2c(c1)[C@H]1O[C@@H]1C[C@H](O)[C@H](O)C(=O)CCC[C@H](C)OC2=O [Compound 5, dihydrohypothemycin] | loss of activity |  |
| COc1cc(O)c2c(c1)/C=C/C[C@H](O)[C@H](O)C(=O)CCC[C@H](C)OC2=O [Compound 7, LL-Z164-1] | loss of activity |  |
| COc1cc(O)cc2c1C(=O)O[C@@H](C)CCCCC/C=C/C(=O)C2 [Compound 8, greensborone C] | diminished activity |  |
| COC1=CC(=O)C2=C(/C=C/C[C@H](O)[C@H](O)C(=O)/C=C\C[C@H](C)OC2=O)C1(F)F [Compound 11, (3S,5Z,8S,9S,11E)-13,13-Difluoro-8,9-dihydroxy-14-methoxy-3-methyl-3,4,9,10-tetrahydro-1H benzo[c][1]oxacyclotetradecine-1,7,16(8H,13H)-trione] | statistically equipotent to 1 | pIC50 (TAK1): 7.11 |
| COc1cc2c(c(O)c1Br)C(=O)O[C@@H](C)C/C=C\C(=O)[C@@H](O)[C@@H](O)C/C=C/2 [Compound 12, (3S,5Z,8S,9S,11E)-15-Bromo-8,9,16-trihydroxy-14-methoxy-3-methyl-3,4,9,10-tetrahydro-1H-benzo[c][1]oxacyclotetradecine-1,7(8H)-dione] | significantly less active |  |
| COc1cc(O)c2c(c1Br)/C=C/C[C@H](O)[C@H](O)C(=O)/C=C\C[C@H](C)OC2=O [Compound 13, (3S,5Z,8S,9S,11E)-13-Bromo-8,9,16-trihydroxy-14-methoxy-3-methyl-3,4,9,10-tetrahydro-1H-benzo[c][1]oxacyclotetradecine-1,7(8H)-dione] |  | times less active than difluoro derivative 11 (TAK1; TAK1 inhibition, compared with 11): 5 times |
| COc1c(Br)c(O)c2c(c1Br)/C=C/C[C@H](O)[C@H](O)C(=O)/C=C\C[C@H](C)OC2=O [Compound 14, (3S,5Z,8S,9S,11E)-13,15-Dibromo-8,9,16-trihydroxy-14methoxy-3-methyl-3,4,9,10-tetrahydro-1H-benzo[c][1]oxacyclotetradecine-1,7(8H)-dione] | least active |  |
| COc1cc(O)c2c(c1)/C=C/C[C@@H]1OC(C)(C)O[C@@H]1C(=O)/C=C\C[C@H](C)OC2=O [Compound 16, (3aS,5Z,8S,15E,17aS)-11-Hydroxy-13-methoxy-2,2,8-trimethyl-7,8,17,17a-tetrahydro-4H-benzo[c][1,3]dioxolo[4,5-h][1]oxacyclotetradecine-4,10(3aH)-dione] |  | reduction of TAK1 inhibitory activity relative to 1 (TAK1; compared with 1): more than 30 fold |
